According to patent publication US9795609B2, “Pharmaceutical composition of 1-adamantylethyloxy-3-morpholino-2-propanol or pharmaceutically acceptable salts thereof for the treatment of cardiovascular disease” (priority 2012, dated 2017):

Experiments:
Type in all cases: in vivo
cats = experiment: Coronary blood flow and haemodynamics in cats after intravenous administration; conditions: 3, 5, and 10 mg/kg intravenously
Excerpt: The ability of the pharmaceutical composition for parenteral use comprising the active substance 1-adamantylethyloxy-3-morpholino-2-propanol or pharmaceutically acceptable salts thereof to improve myocardial perfusion indicates to appropriateness of its use in acute coronary syndrome.

[1] = test system: rats with small-focus myocardial infarction; experiment: Experimental therapy of rats with small-focus myocardial infarction
Excerpt: The ability of the pharmaceutical composition for parenteral use comprising the active substance 1-adamantylethyloxy-3-morpholino-2-propanol or pharmaceutically acceptable salts thereof allows its use for treatment of cardiomyopathies of various geneses (alcoholic, infectious, toxic, and metabolic).
This allows to use it for treatment of various forms of coronary artery disease, including unstable angina pectoris, stable rest and exertional angina pectoris, angina pectoris of intact vessels, acute coronary syndrome (including early postinfarction angina pectoris), myocardial infarction (large-focus and small-focus, repeated and recurrent) post resuscitation disease (state after emergency procedures), treatment and prevention of ischemic myocardial postreperfusion injuries after thrombolysis, stenting, balloon angioplasty, coronary vessels atheroctomy, postinfarction myocardiosclerosis, cardiomyopathies of various genesis (alcoholic, infectious-toxic, and metabolic), heart rhythm disorders, diabetic angiopathies and complications thereof.

[2] = test system: rats with acute adrenal cardiomyopathy; experiment: Acute adrenal cardiomyopathy simulation in rats, preventive single administration; conditions: single doses of 15, 30, 50 and 100 mg/kg one hour before simulation
Excerpt: This allows to use it for treatment of various forms of ischemic heart disease, including unstable angina pectoris, stable rest and exertional angina pectoris, angina pectoris of intact vessels, acute coronary syndrome (including early postinfarction angina pectoris), myocardial infarction (large-focus and small-focus, repeated and recurrent) post resuscitation disease (state after emergency procedures), and cardiomyopathies of various genesis (alcoholic, infectious-toxic, and metabolic).

[3] = 10 mg/kg once a day for 96 hours of ischemia

OC(COCCC12CC3CC(CC(C3)C1)C2)CN1CCOCC1 (stereo not shown) [1-adamantylethyloxy-3-morpholino-2-propanol]
coronary blood flow (cats): stimulates coronary blood flow | hypotension (cats): not accompanied by hypotension | peripheral vasodilatation, venous inflow and cardiac output (cats): not associated with peripheral vasodilatation, decreased of venous inflow and cardiac output | bcl-2 antiapoptotic protein expression ([1]; 10 mg/kg once a day for 96 hours): promoted the increasing of bcl-2 antiapoptotic protein expression | RNA content and transcriptional activity of cardiomyocytes [1, 3]: increasing of RNA content and transcriptional activity | c-fos protein content in cardiomyocytes [1, 3]: promoted the increasing of c-fos protein content in cardiomyocytes | cardiomyocytes nuclei density [1, 3]: retention of cardiomyocytes nuclei density | percentage of necrotic cardiomyocytes [1, 3]: the percentage of necrotic cardiomyocytes is reduced | manifestations of endothelial dysfunction and nitrosating stress ([1]; 3, 10, 20, 50 and 100 mg/kg once a day for 96 hours of ischemia): promoted to reduce manifestations of endothelial dysfunction and nitrosating stress | mortality [2]: promoted the reducing mortality in rats
